The source of these data is US8501794B2, “Compounds as cannabinoid receptor ligands” (priority 2007, dated 2013).

For assay [1], the target named is T1, human CB2 receptors (Homo sapiens, UniProt P34972).
T1 construct: expressed in transfected cells; host or cells: HEK293
Put plainly: human CB2 radioligand binding assay ([3H]CP-55,940 competition).

Assay [2] addresses T2, rat CB2 (Rattus norvegicus, UniProt Q9QZN9).
T2 sequence (Q9QZN9 1-360): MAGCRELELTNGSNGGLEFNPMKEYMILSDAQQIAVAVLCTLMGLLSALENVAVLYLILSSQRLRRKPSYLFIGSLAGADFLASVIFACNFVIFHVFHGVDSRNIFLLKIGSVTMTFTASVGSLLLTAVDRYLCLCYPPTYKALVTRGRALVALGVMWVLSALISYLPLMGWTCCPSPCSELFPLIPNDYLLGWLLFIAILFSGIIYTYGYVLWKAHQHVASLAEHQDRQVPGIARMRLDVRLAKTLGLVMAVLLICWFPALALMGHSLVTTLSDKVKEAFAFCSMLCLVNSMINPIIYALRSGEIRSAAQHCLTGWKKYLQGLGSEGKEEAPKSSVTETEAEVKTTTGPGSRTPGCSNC
Put plainly: rat CB2 cyclase functional assay (HitHunter cAMP, HEK cells). It is filed as cell-based. Also on record: expressed in transfected cells; host or cells: HEK. Particulars: forskolin 18 μM.

For assay [3], the target named is T2, rat CB2. Put plainly: rat CB2 radioligand binding assay ([3H]CP-55,940 competition). Also on record: expressed in transfected cells; host or cells: HEK293.

Structures are written as SMILES.

T1 sequence (P34972 whole entry): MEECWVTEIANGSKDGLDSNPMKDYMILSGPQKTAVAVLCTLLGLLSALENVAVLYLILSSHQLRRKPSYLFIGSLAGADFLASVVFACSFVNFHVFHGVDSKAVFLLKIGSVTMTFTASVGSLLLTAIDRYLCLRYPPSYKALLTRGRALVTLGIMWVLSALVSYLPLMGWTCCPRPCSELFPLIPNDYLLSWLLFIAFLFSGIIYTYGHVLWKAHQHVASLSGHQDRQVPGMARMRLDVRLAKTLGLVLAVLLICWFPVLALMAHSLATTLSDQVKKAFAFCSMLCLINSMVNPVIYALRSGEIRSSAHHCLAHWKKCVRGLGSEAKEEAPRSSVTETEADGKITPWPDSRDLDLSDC

The term Ki denotes the dissociation constant of the complex between target and ligand, obtained from inhibition or displacement. For orientation: EC50 means the concentration giving half of the maximal effect. For `CCCCc1cn(C(C)(C)C)s/c1=N\C(=O)[C@@]1(C)CC[C@@H](C(=O)NC)C1(C)C` [Example 218, (1S,3R)—N^1-[(5Z)-4-butyl-2-tert-butylisothiazol-5(2H)-ylidene]-N^3,1,2,2-tetramethylcyclopentane-1,3-dicarboxamide], the values for the Ki in assay [1] and in assay [3] were 53 nM and 29 nM, respectively. The midpoint of the response in assay [2], the EC50, lay at 1.1 nM.
Consider `COc1ccc(Cl)cc1C(=O)/N=c1\sn(C(C)(C)C)cc1CCCCF` [Example 148, N-[(5Z)-2-tert-butyl-4-(4-fluorobutyl)isothiazol-5(2H)-ylidene]-5-chloro-2-methoxybenzamide], for which the Ki was 7.6 nM in assay [1] and 0.24 nM in assay [3]. Besides, the EC50 in assay [2] was 0.11 nM.
The matching figures for `CCCCc1cn(C(C)(C)C)s/c1=N\C(=O)C1(c2ccccc2)CCCCC1` [Example 94, N-[(5Z)-4-butyl-2-tert-butylisothiazol-5(2H)-ylidene]-1-phenylcyclohexanecarboxamide]: 4.8 nM, 1.1 nM and 0.25 nM.
Take `COc1ccc(Cl)cc1C(=O)/N=c1\sn(C(C)(C)C)cc1CCC(C)(C)C#N` [Example 137, N-[(5Z)-2-tert-butyl-4-(3-cyano-3-methylbutyl)isothiazol-5(2H)-ylidene]-5-chloro-2-methoxybenzamide]: the figures for the Ki in assay [1] and in assay [3] were 7.5 nM and 2.6 nM, respectively. The compound also came in with an EC50 in assay [2] of 2.2 nM.
The matching figures for `CCCCc1cn(C(C)(C)C)s/c1=N\C(=O)[C@]1(C)CC[C@H](C(=O)OCC)C1(C)C` [Example 175, Ethyl (1S,3R)-3-({[(5Z)-4-butyl-2-tert-butylisothiazol-5(2H)-ylidene]amino}carbonyl)-2,2,3-trimethylcyclopentanecarboxylate]: 3.8 nM, 1.5 nM and 0.54 nM.
Take `CCCCc1cn(C(C)(C)C)s/c1=N\C(=O)[C@]1(C)CC[C@H](NC(N)=O)C1(C)C` [Example 245, (1R,3S)-3-[(aminocarbonyl)amino]-N-[(5Z)-4-butyl-2-tert-butylisothiazol-5(2H)-ylidene]-1,2,2-trimethylcyclopentanecarboxamide]: the Ki in assay [1] was determined as 32 nM; in assay [3], 35 nM. It took 9.6 nM to reach a half-maximal effect in assay [2] (EC50).
The matching figures for `COc1ccc(C#N)cc1C(=O)/N=c1\sn(C(C)(C)C)cc1Cc1ccco1` [Example 51, N-[(5Z)-2-tert-butyl-4-(2-furylmethyl)isothiazol-5(2H)-ylidene]-5-cyano-2-methoxybenzamide]: 140 nM, 8.1 nM and 0.3 nM.
In the case of `CCCCc1cn(C(C)(C)C)s/c1=N\C(=NC#N)c1cc(C(F)(F)F)ccc1OC[C@@H]1CCCN1C` [Example 193], the results for the Ki in assay [1] and in assay [3] were 37 nM and 97 nM, respectively. In assay [2], this compound had an EC50 of 2.7 nM.
For the compound `COc1ccc(C(F)(F)F)cc1C(=O)/N=c1\sn(C(C)(C)C)cc1Cc1ccco1` [Example 71, N-[(5Z)-2-tert-butyl-4-(2-furylmethyl)isothiazol-5(2H)-ylidene]-2-methoxy-5-(trifluoromethyl)benzamide], the Ki in assay [1] was found to be 28 nM; in assay [3], 1.9 nM. The compound further displayed an EC50 in assay [2] of 0.36 nM.
In the case of `CCCCc1cn(C(C)(C)C)s/c1=N\C(=O)C12CC3CC(CC(C3)C1)C2` [Example 123, N-[(5Z)-4-butyl-2-tert-butylisothiazol-5(2H)-ylidene]adamantane-1-carboxamide], the Ki in assay [1] was found to be 0.31 nM; in assay [3] it was 0.17 nM. Moreover, the response in assay [2] was half-maximal at 0.13 nM (EC50).
For the compound `CCCCc1cn(C(C)(C)C)s/c1=N\C(=O)[C@]1(C)CC[C@H](C(=O)NC)C1(C)C` [Example 184, (1R,3S)—N^1-[(5Z)-4-butyl-2-tert-butylisothiazol-5(2H)-ylidene]-N^3,1,2,2-tetramethylcyclopentane-1,3-dicarboxamide], the values for the Ki in assay [1] and in assay [3] were 6.5 nM and 3.2 nM, respectively. In addition, the midpoint of the response in assay [2], the EC50, lay at 0.41 nM.
For the compound `CCCCc1cn(C(C)(C)C)s/c1=N\C(=O)C1(C)CCC(C(=O)N(C)C)C1(C)C` (stereo not drawn) [Example 99, N^1-[(5Z)-4-butyl-2-tert-butylisothiazol-5(2H)-ylidene]-N^3,N^3,1,2,2-pentamethylcyclopentane-1,3-dicarboxamide], the Ki in assay [1] was 56 nM; in assay [3], 42 nM. In addition, the EC50 in assay [2] amounted to 4.8 nM.
In the case of `CCCCc1cn(C(C)(C)C)s/c1=N\C(=O)[C@@]1(C)CC[C@@H](C(=O)N(C)C)C1(C)C` [Example 223, (1S,3R)—N^1-[(5Z)-4-butyl-2-tert-butylisothiazol-5(2H)-ylidene]-N^3,N^3,1,2,2-pentamethylcyclopentane-1,3-dicarboxamide], the values for the Ki in assay [1] and in assay [3] were 92 nM and 62 nM, respectively. Also, in assay [2], the EC50 came out at 5.8 nM.
`CCCCc1cn(C(C)(C)CF)s/c1=N\C(=O)c1cc(Cl)ccc1OC` [Example 154, N-[(5Z)-4-butyl-2-(2-fluoro-1,1-dimethylethyl)isothiazol-5(2H)-ylidene]-5-chloro-2-methoxybenzamide]: the Ki in assay [1] was 5.7 nM; in assay [3], 0.32 nM. Besides, in assay [2], the EC50 came out at 0.065 nM.
As for `CCCCc1cn(C(C)(C)C)s/c1=N\C(=O)c1cc(C=NO)ccc1OC` [Example 59, N-[(5Z)-4-butyl-2-tert-butylisothiazol-5(2H)-ylidene]-5-[(hydroxyimino)methyl]-2-methoxybenzamide], the values for the inhibition constant Ki in assay [1] and in assay [3] were 54 nM and 3.3 nM, respectively. In assay [2], this compound registered an EC50 of 0.12 nM.
The matching figures for `CCCCc1cn(C(C)(C)C)s/c1=N\C(=O)c1cc(C(C)(F)F)ccc1OC` [Example 69, N-[(5Z)-4-butyl-2-tert-butylisothiazol-5(2H)-ylidene]-5-(1,1-difluoroethyl)-2-methoxybenzamide]: 18 nM, 1.6 nM and 0.043 nM.
For `COc1ccc(Cl)cc1C(=O)/N=c1\sn(C(C)(C)C)cc1CCN=[N+]=[N-]` [Example 14, N-[(5Z)-4-(2-azidoethyl)-2-tert-butylisothiazol-5(2H)-ylidene]-5-chloro-2-methoxybenzamide], the Ki was 26 nM in assay [1] and 2.4 nM in assay [3]. Moreover, in assay [2], a half-maximal effect (EC50) was put at 0.71 nM.
In the case of `CCCCc1cn(C(C)(C)C)s/c1=N\S(=O)(=O)C1CCCCC1` [Example 118, N-[(5Z)-4-butyl-2-tert-butylisothiazol-5(2H)-ylidene]cyclohexanesulfonamide], the Ki in assay [1] turned out to be 43 nM; in assay [3], 119 nM. The compound further registered an EC50 in assay [2] of 5.1 nM.
Regarding `COc1ccc(Cl)cc1C(=O)/N=c1\sn(C(C)(C)C)cc1CCC(C)=O` [Example 84, N-[(5Z)-2-tert-butyl-4-(3-oxobutyl)isothiazol-5(2H)-ylidene]-5-chloro-2-methoxybenzamide], the Ki in assay [1] worked out at 42 nM; in assay [3], 2.7 nM. The same compound displayed an EC50 in assay [2] of 0.88 nM.
The matching figures for `COc1ccc(Cl)cc1C(=O)/N=c1\sn(C(C)(C)C)cc1CCCC(C)=O` [Example 75, N-[(5Z)-2-tert-butyl-4-(4-oxopentyl)isothiazol-5(2H)-ylidene]-5-chloro-2-methoxybenzamide]: 31 nM, 4 nM and 0.29 nM.
Regarding `COc1ccc(Cl)cc1C(=O)/N=c1\sn(C(C)(C)C)cc1CCCCC#N` [Example 138, N-[(5Z)-2-tert-butyl-4-(4-cyanobutyl)isothiazol-5(2H)-ylidene]-5-chloro-2-methoxybenzamide], the figures for the Ki in assay [1] and in assay [3] were 5.9 nM and 0.9 nM, respectively. This compound registered an EC50 in assay [2] of 12.8 nM.
Regarding `CCCCc1cn(C(C)(C)C)s/c1=N\C(=O)[C@@]1(C)CC[C@@H](C(=O)N2CCC2)C1(C)C` [Example 222, (1S,3R)-3-(azetidin-1-ylcarbonyl)-N-[(5Z)-4-butyl-2-tert-butylisothiazol-5(2H)-ylidene]-1,2,2-trimethylcyclopentanecarboxamide], the Ki was determined as 170 nM in assay [1] and 70 nM in assay [3]. Further, the EC50 in assay [2] was 5.7 nM.
Take `COc1ccc(Cl)cc1C(=O)/N=c1\sn(C(C)(C)C)cc1CCCC#N` [Example 30, N-[(5Z)-2-tert-butyl-4-(3-cyanopropyl)isothiazol-5(2H)-ylidene]-5-chloro-2-methoxybenzamide]: the results for the Ki in assay [1] and in assay [3] were 17 nM and 2.6 nM, respectively. This compound yielded an EC50 in assay [2] of 0.2 nM.
In the case of `CCCCc1cn(C(C)(C)C)s/c1=N\C(=O)c1cc(Cl)ccc1OCC(N)=O` [Example 140, 2-(2-amino-2-oxoethoxy)-N-[(5Z)-4-butyl-2-tert-butylisothiazol-5(2H)-ylidene]-5-chlorobenzamide], the Ki came to 11 nM in assay [1] and 3.9 nM in assay [3]. The compound also gave an EC50 in assay [2] of 0.15 nM.
Take `COc1ccc(Cl)cc1C(=O)/N=c1\sn(C(C)(C)C)cc1OCCCCF` [Example 158, N-[(5Z)-2-tert-butyl-4-(4-fluorobutoxy)isothiazol-5(2H)-ylidene]-5-chloro-2-methoxybenzamide]: the Ki in assay [1] amounted to 48 nM; in assay [3], 6.1 nM. The midpoint of the response in assay [2], the EC50, lay at 0.046 nM.
The matching figures for `CCCCc1cn(C(C)(C)C)s/c1=N\C(=O)c1cc(OC)ccc1OC` [Example 41, N-[(5Z)-4-butyl-2-tert-butylisothiazol-5(2H)-ylidene]-2,5-dimethoxybenzamide]: 45 nM, 6.3 nM and 0.21 nM.
